Target: T1, human recombinant CCR3 receptors (Homo sapiens, UniProt P51677)
T1 construct: expressed in transfected cells
T1 sequence (P51677 1-355): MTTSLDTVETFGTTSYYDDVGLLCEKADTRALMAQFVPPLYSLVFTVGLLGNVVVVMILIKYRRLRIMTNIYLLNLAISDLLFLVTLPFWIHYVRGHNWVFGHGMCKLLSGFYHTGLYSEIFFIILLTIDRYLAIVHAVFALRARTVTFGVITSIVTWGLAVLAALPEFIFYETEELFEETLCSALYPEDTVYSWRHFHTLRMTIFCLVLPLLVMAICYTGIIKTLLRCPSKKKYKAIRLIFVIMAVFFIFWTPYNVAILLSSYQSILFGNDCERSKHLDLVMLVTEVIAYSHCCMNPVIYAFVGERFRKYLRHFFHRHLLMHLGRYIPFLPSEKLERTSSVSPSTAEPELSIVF
Test: Compound affinity at human recombinant CCR3 receptors by radioligand competition on CHO-K1 cell membranes
Type: binding
Details: competition of 2 nM [3H]-4-(2,4-dichloro-3-methylphenoxy)-1'-[4-(methylsulfonyl)benzoyl]-1,4'-bipiperidine, 2 h at 37° C., mean of minimum 2 experiments, Cheng-Prussof correction of pIC50
Protocol: Determination of Compound Affinity at Human Recombinant CCR3 Receptors Assessed by Competition of [^3H]-4-(2,4-dichloro-3-methylphenoxy)-1′-[4-(methylsulfonyl)benzoyl]-1,4′-bipiperidine for CHO-K1 Cell Membranes In Vitro
Membranes, prepared from CHO-K1 cells stably expressing recombinant human CCR3, suspended in assay buffer (50 mM Tris-Base, pH 7.4; containing sodium chloride (100 mM) and magnesium chloride (2 mM)) were incubated in the presence of 2 nM [^3H]-4-(2,4-dichloro-3-methylphenoxy)-1′-[4-(methylsulfonyl)benzoyl]-1,4′-bipiperidine, along with vehicle (1% (v/v) DMSO), 4-(4-chloro-3-methylphenoxy)-1′-[2-(methylsulfonyl)benzoyl]-1,4′-bipiperidine (to define non-specific binding) or test compound for 2 h at 37° C. in round bottomed 96-well plates. The plates were then filtered onto GF/B filter plates, pre-soaked for 1 hour in plate-coating solution (0.3% (w/v) polyethylenimine, 0.2% (w/v) BSA in de-ionised water), using a 96-well plate Tomtec cell harvester. Four washes (250 μL) with wash buffer (50 mM Tris-Base, pH 7.4 containing sodium chloride (500 mM) and magnesium chloride (2 mM)) were performed at 4° C. to remove unbound radioactivity. Plates were dried and MicroScint-O (50 μL) was added to each well. The plates were sealed (TopSeal A) and filter-bound radioactivity was measured with a scintillation counter (TopCount, Packard BioScience) using a 1 minute counting protocol.
Specific binding was determined from values of the control wells minus the values for the NSB wells for each assay plate. pIC50 values were calculated using a four parameter logistic fit (where pIC50 is defined as the negative logarithm of the concentration of compound required for 50% reduction in specific [^3H]-4-(2,4-dichloro-3-methylphenoxy)-1′-[4-(methylsulfonyl)benzoyl]-1,4′-bipiperidine binding). Data were presented as mean pKi values (calculated by applying a Cheng-Prussof correction to pIC50 values) from a minimum of 2 separate experiments.

CCR3 pKi | Molecule
9.4 | 2-Amino-6-({[4-(3,4-dichloro-benzyl)-morpholin-2-ylmethyl]-carbamoyl}-methylsulfanyl)-5-fluoro-nicotinic acid [Example 29A]

Same assay, conditions: competition of 2 nM [3H]-4-(2,4-dichloro-3-methylphenoxy)-1'-[4-(methylsulfonyl)benzoyl]-1,4'-bipiperidine, 2 h at 37° C., mean of minimum 2 experiments, Cheng-Prussof correction of pIC50, read-out: CCR3 pKi (converted)

Ki [nM] | Molecule
1 | Cc1cc(F)ccc1CN1CCO[C@@H](CNC(=O)CSc2ccc(C(=O)O)cc2F)C1 [Example 31A, 3-Fluoro-4-[[(2S)-4-[(4-fluoro-2-methyl-phenyl)methyl]morpholin-2-yl]methylcarbamoylmethylsulfanyl]benzoic Acid]
0.251 | Cc1cc(CN2CCO[C@@H](CNC(=O)CSc3ccc(C(=O)O)cc3F)C2)ccc1Cl [Example 16A, 4-[[(2S)-4-[(4-chloro-3-methyl-phenyl)methyl]morpholin-2-yl]methylcarbamoylmethylsulfanyl]-3-fluoro-benzoic acid]
0.2 | Cc1c(CN2CCOC(CNC(=O)CSc3nc(N)c(C(=O)O)cc3F)C2)ccc(Cl)c1Cl (centres unmarked) [Example 10A, 2-Amino-6-({[4-(3,4-dichloro-2-methyl-benzyl)-morpholin-2-ylmethyl]-carbamoyl}-methylsulfanyl)-5-fluoro-nicotinic Acid]
0.251 | O=C(CSc1ncc(C(=O)O)cc1Cl)NC[C@H]1CN(Cc2ccc(Cl)c(Cl)c2)CCO1 [Example 9A, (S)-5-chloro-6-[[4-[(3,4-dichlorophenyl)methyl]morpholin-2-yl]methylcarbamoylmethylsulfanyl]-nicotinic acid]

Continued, molecule first:

Molecule | Ki [nM]
O=C(CSc1cccc(C(=O)O)c1)NC[C@H]1CN(Cc2ccc(Cl)c(Cl)c2)CCO1 [Example 6, (S)-3-[[4-[(3,4-dichlorophenyl)methyl]morpholin-2-yl]methylcarbamoylmethylsulfanyl]-benzoic acid] | 0.501
O=C(CSc1ccc(C(=O)O)cc1)NC[C@H]1CN(Cc2ccc(Cl)c(Cl)c2)CCO1 [Example 2, (S)-4-[[4-[(3,4-dichlorophenyl)methyl]morpholin-2-yl]methylcarbamoylmethylsulfanyl]-benzoic acid] | 0.398
O=C(CSc1ccc(C(=O)O)cc1C(F)(F)F)NC[C@H]1CN(Cc2ccc(Cl)c(Cl)c2)CCO1 [Example 8A, (S)-4-[[4-[(3,4-dichlorophenyl)methyl]morpholin-2-yl]methylcarbamoylmethylsulfanyl]-3-(trifluoromethyl)benzoic acid] | 0.2
